Results on five compounds are retold here after patent US20250179047A1, “5-[7-(3,4-DIHYDRO-1H-ISOQUINOLINE-2-CARBONYL)-1,2,3,4 TETRAHYDROISOQUINOLIN-6-YL]-1H-PYRROLE-3-CARBOXAMIDE DERIVATIVES, PHARMACEUTICAL COMPOSITIONS CONTAINING THEM AND THEIR USES AS PRO-APOPTOTIC AGENTS” (LES LABORATOIRES SERVIER, priority 2022, published 2025).

The target in one test is BCL2 WT (Homo sapiens (Human), UniProt P10415). The test is described as follows: TR-FRET competitive binding assay, BCL2 WT. The following applies: Ki determined from IC50, read-out: TR_FRET EKI_Bcl2 WT. In a few lines:
(§1)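 Terbium-labelled N-terminal Halo-fusion BCL2 or BCLXL (E. coli), 0.5 nM, competed against fluorescein-labelled PUMA peptide (2 or 20 nM) for 2 h at 23° C in 50 mM Hepes pH 7.5, 150 mM NaCl, 5% DMSO. TR-FRET 520/495 nm ratio gave IC50 by four-parameter fit; Ki derived from IC50.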

A further test concerns the target BCL2 D103Y (Homo sapiens, UniProt P10415, D103Y). The test is described as follows: TR-FRET competitive binding assay, BCL2 D103Y. The following applies: Ki determined from IC50, read-out: TR_FRET EKI_Bcl2 D103Y. In a few lines: as §1
A further test has as its target BCL2 F104I (Homo sapiens, UniProt P10415, F104I). The test is described as follows: TR-FRET competitive binding assay, BCL2 F104I. The note with it: Ki determined from IC50, read-out: TR_FRET EKI_Bcl2 F104I. A digest of the protocol:
as §1

A further test addresses BCL2 D111A (Homo sapiens, UniProt P10415, D111A). The test is described as follows: TR-FRET competitive binding assay, BCL2 D111A. The following applies: Ki determined from IC50, read-out: TR_FRET EKI_Bcl2 D111A. In a few lines:
as §1

For a further test, the target named is BCLXL WT (Homo sapiens (Human), UniProt Q07817). The experiment in a line: TR-FRET competitive binding assay, BCLXL WT. The following applies: for Ki: BCLXL WT, Ki determined from IC50, read-out: TR_FRET EKI BclxL; for TR_FRET EKI BCLxL/WT selectivty ratio: ratio Ki BCLxL / Ki BCL2 WT. A digest of the protocol:
as §1

The test system of the next test is KMS12PE Bcl2 G101V. The test is described as follows: In vitro cytotoxicity CellTiterGlo 72 h, KMS12PE Bcl2 G101V. In kind it is cell-based. The note with it: Homo sapiens, KMS-12-PE, read-out: C50 nM, KMS12PE Bcl2 G101V. As for the experimental part: (§2) KMS-12-PE (ACC 606) were purchased from the Leibniz-Institute DSMZ (Braunschweig, Germany) and were grown at 37° C. in a humidified atmosphere with 5% CO2 in media recommended by the suppliers. Lentiviral particles containing Bcl-2 wild type (also named “Bcl2 WT”), Bcl-2 mutated on G101V (also named “Bcl2 G101V”), Bcl-2 mutated on D103Y (also named “Bcl2 D103Y”), Bcl-2 mutated on D103V (also named “Bcl2 D103V”), Bcl-2 mutated on D103E (also named “Bcl2 D103E”), Bcl-2 mutated on F104I (also named “Bcl2 F104I”), Bcl-2 mutated on F104L (also named “Bcl2 F104L”), Bcl-2 mutated on D111A (also named “Bcl2 D111A”), Bcl-2 mutated on A113G (also named “Bcl2 A113G”), Bcl-2 mutated on R129L (also named “Bcl2 R129L”), Bcl-2 mutated on V156D (also named “Bcl2 V156D”) were cloned into pcLV-CMV-DEST-IRES-TagRFP. Lentiviral particles (1×10^6) were mixed with Polybrene at 8 μg/ml and transduced by spinoculation for 1 h at 32° C. and incubated overnight. After 8 days, TagRFP positive-cells were sorted by FACS. BCL2 expression was monitored by immunoblotting using anti-Flag and anti-BCL2 antibodies. Cells were seeded into 96-wells plates and treated with 1:3.16 serial dilution of compounds (9 different concentrations). Cell viability was assessed using CellTiterGlo reagent following treatment for 72 h. Results were normalized to the viability of cells without compounds (control wells). The C50 values were calculated using nonlinear regression algorithms in XCell software.

For a further test, the system named is KMS12PE Bcl2 F104I. The test is described as follows: In vitro cytotoxicity CellTiterGlo 72 h, KMS12PE Bcl2 F104I. Format: cell-based. The note with it: Homo sapiens, KMS-12-PE, read-out: C50 nM, KMS12PE Bcl2 F104I. How it is done: as §2
A further test concerns KMS12PE Bcl2 D111A. The experiment in a line: In vitro cytotoxicity CellTiterGlo 72 h, KMS12PE Bcl2 D111A. In kind it is cell-based. The following applies: Homo sapiens, KMS-12-PE, read-out: C50 nM, KMS12PE Bcl2 D111A. How it is done: as §2
A further test concerns KMS12PE Bcl2 A113G. The experiment in a line: In vitro cytotoxicity CellTiterGlo 72 h, KMS12PE Bcl2 A113G. In kind it is cell-based. The note with it: Homo sapiens, KMS-12-PE, read-out: C50 nM, KMS12PE Bcl2 A113G. How it is done: as §2
For the next test, the system named is KMS12PE Bcl2 R129L. The experiment in a line: In vitro cytotoxicity CellTiterGlo 72 h, KMS12PE Bcl2 R129L. Format: cell-based. The following applies: Homo sapiens, KMS-12-PE, read-out: C50 nM, KMS12PE Bcl2 R129L. How it is done:
as §2

Molecules are shown by their SMILES.

BCL2 WT, sequence (P10415 other isoform, or with tags, fused parts or gaps): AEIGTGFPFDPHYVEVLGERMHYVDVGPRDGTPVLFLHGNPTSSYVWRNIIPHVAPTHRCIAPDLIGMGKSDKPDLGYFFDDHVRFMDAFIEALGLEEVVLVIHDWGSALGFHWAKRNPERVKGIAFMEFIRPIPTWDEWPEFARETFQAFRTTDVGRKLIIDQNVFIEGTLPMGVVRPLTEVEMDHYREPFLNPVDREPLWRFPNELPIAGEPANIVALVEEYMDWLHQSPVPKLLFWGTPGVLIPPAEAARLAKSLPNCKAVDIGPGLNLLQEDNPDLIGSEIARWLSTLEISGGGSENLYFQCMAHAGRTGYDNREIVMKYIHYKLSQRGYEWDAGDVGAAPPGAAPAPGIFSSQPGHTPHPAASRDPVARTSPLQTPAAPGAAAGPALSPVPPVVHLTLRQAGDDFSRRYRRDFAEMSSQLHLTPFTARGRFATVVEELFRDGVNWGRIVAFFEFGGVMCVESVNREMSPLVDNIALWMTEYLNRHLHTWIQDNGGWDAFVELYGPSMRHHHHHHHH
BCLXL WT, sequence (Q07817 other isoform, or with tags, fused parts or gaps): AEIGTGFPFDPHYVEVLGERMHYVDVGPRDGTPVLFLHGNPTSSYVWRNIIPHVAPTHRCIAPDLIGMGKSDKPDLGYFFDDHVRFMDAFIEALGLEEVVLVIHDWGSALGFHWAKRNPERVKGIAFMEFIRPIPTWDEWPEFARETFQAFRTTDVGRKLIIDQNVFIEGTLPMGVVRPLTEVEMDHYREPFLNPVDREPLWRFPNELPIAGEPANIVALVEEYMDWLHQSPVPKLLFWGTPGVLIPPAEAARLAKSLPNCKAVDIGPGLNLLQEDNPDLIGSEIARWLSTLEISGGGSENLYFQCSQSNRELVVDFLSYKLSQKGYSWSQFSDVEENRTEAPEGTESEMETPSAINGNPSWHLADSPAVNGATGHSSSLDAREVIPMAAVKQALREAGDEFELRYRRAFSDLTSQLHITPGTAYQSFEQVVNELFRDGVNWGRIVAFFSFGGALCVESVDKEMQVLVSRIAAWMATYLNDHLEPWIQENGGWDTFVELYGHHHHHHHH

In the case of `Cc1c(N(C(=O)c2cc(-c3cc4c(cc3C(=O)N3Cc5ccccc5C[C@H]3C)CN(C(=O)Cc3ccc(OCCN5CCSCC5)cc3)CC4)n(C)c2C)c2ccc(O)cc2)cc(C#N)n1C` [Example 55, N-(5-cyano-1,2-dimethyl-1H-pyrrol-3-yl)-N-(4-hydroxyphenyl)-1,2-dimethyl-5-{7-[(3R)-3-methyl-1,2,3,4-tetrahydroisoquinoline-2-carbonyl]-2-(2-{4-[2-(thiomorpholin-4-yl)ethoxy]phenyl}acetyl)-1,2,3,4-tetrahydroisoquinolin-6-yl}-1H-pyrrole-3-carboxamide], the Ki at BCL2 WT was 0.1 nM; on BCL2 D103Y, 0.16 nM; on BCL2 F104I it was 0.3 nM; on BCL2 D111A, 0.25 nM; at BCLXL WT, 2.6 nM. Also, on BCLXL WT, the “TR_FRET EKI BCLxL/WT selectivty ratio” value is 26.5. Besides, the IC50 in the test with KMS12PE Bcl2 G101V is 13.7 nM; in the test on KMS12PE Bcl2 F104I, 57.8 nM; with KMS12PE Bcl2 D111A, 2.2 nM; in the test with KMS12PE Bcl2 A113G, 5.53 nM; in the test with KMS12PE Bcl2 R129L it was 2.46 nM.

Take `Cc1c(N(C(=O)c2cc(-c3cc4c(cc3C(=O)N3Cc5ccccc5C[C@H]3CN3CCCCC3)CN(C(=O)Cc3ccc(OCCC5CCOCC5)cc3)CC4)n(C)c2C)c2ccc(O)cc2)cc(C#N)n1C` [Example 66, N-(5-cyano-1,2-dimethylpyrrol-3-yl)-N-(4-hydroxyphenyl)-1,2-dimethyl-5-[2-(2-{4-[2-(oxan-4-yl)ethoxy]phenyl}acetyl)-7-{[(3S)-3-(piperidin-1-ylmethyl)-3,4-dihydro-1H-isoquinolin-2-yl]carbonyl}-3,4-dihydro-1H-isoquinolin-6-yl]pyrrole-3-carboxamide]: the Ki at BCL2 WT turned out to be 0.08 nM; at BCL2 D103Y, 0.23 nM; on BCL2 F104I, 0.47 nM; on BCL2 D111A, 0.23 nM; on BCLXL WT it was 4 nM. The “TR_FRET EKI BCLxL/WT selectivty ratio” value on BCLXL WT amounted to 47.6. The IC50 amounted to 10.1 nM in the test on KMS12PE Bcl2 G101V; 65.2 nM in the test on KMS12PE Bcl2 F104I; 1.57 nM in the test on KMS12PE Bcl2 D111A; 2.89 nM in the test on KMS12PE Bcl2 A113G; 1.32 nM with KMS12PE Bcl2 R129L.

`Cc1c(C(=O)N(c2ccc(O)cc2)c2cc(C#N)n(C(F)F)c2C)cc(-c2cc3c(cc2C(=O)N2Cc4ccccc4C[C@H]2CN2CCCCC2)CN(C(=O)Cc2ccc(OCCN4CCOCC4)cc2)CC3)n1C` [Example 77]: the Ki at BCL2 WT is 0.06 nM; on BCL2 D103Y, 0.14 nM; on BCL2 F104I it was 0.47 nM; at BCL2 D111A, 0.2 nM; at BCLXL WT, 8 nM. In addition, the “TR_FRET EKI BCLxL/WT selectivty ratio” value at BCLXL WT turned out to be 135.6. Moreover, the IC50 in the test with KMS12PE Bcl2 G101V came out at 28.2 nM; in the test with KMS12PE Bcl2 F104I it was 156 nM; in the test with KMS12PE Bcl2 D111A, 3.64 nM; with KMS12PE Bcl2 A113G, 7.86 nM; in the test with KMS12PE Bcl2 R129L it was 2.81 nM.

Consider `Cc1c(C(=O)N(c2ccc(O)cc2)c2cc(C#N)n(C(F)F)c2C)cc(-c2cc3c(cc2C(=O)N2Cc4ccccc4C[C@H]2CN2CCCCC2)CN(C(=O)Cc2ccc(OCCN4CCOCC4)cc2F)CC3)n1C` [Example 78, N-[5-cyano-1-(difluoromethyl)-2-methylpyrrol-3-yl]-5-[2-(2-{2-fluoro-4-[2-(morpholin-4-yl)ethoxy]phenyl}acetyl)-7-{[(3S)-3-(piperidin-1-ylmethyl)-3,4-dihydro-1H-isoquinolin-2-yl]carbonyl}-3,4-dihydro-1H-isoquinolin-6-yl]-N-(4-hydroxyphenyl)-1,2-dimethylpyrrole-3-carboxamide], for which the Ki at BCL2 WT is 0.05 nM; on BCL2 D103Y, 0.14 nM; at BCL2 F104I it was 0.43 nM; on BCL2 D111A, 0.26 nM; on BCLXL WT, 7.1 nM. Also, the “TR_FRET EKI BCLxL/WT selectivty ratio” value at BCLXL WT was 134.0. For the same compound, the IC50 with KMS12PE Bcl2 G101V came out at 8.35 nM; with KMS12PE Bcl2 F104I, 21.8 nM; with KMS12PE Bcl2 D111A, 1.14 nM; in the test on KMS12PE Bcl2 A113G, 2.11 nM; with KMS12PE Bcl2 R129L, 0.9 nM.

`Cc1c(N(C(=O)c2cc(-c3cc4c(cc3C(=O)N3Cc5ccccc5C[C@H]3CN3CCC[C@H](C)C3)CN(C(=O)Cc3ccc(OCCN5CCOCC5)cc3F)CC4)n(C)c2C)c2ccc(O)cc2)cc(C#N)n1C` [Example 107]: the Ki is 0.09 nM at BCL2 WT; 0.32 nM on BCL2 D103Y; 0.34 nM at BCL2 F104I; 0.22 nM on BCL2 D111A; 7.8 nM on BCLXL WT. Moreover, the “TR_FRET EKI BCLxL/WT selectivty ratio” value at BCLXL WT amounted to 87.6. In addition, the IC50 with KMS12PE Bcl2 G101V amounted to 9.13 nM; in the test on KMS12PE Bcl2 F104I it was 23.6 nM; with KMS12PE Bcl2 D111A, 1.36 nM; with KMS12PE Bcl2 A113G, 2.82 nM; in the test with KMS12PE Bcl2 R129L, 1.12 nM.
